Assay results as given in patent US5607944A, “Bicyclic heterocyclic compounds, pharmaceutical preparations containing these compounds and processes for their preparations” (Karl Thomae GmbH, priority 1993, dated 1997).
Structures can show the parent of a compound that is named as a salt.

What was measured:
platelet aggregation = assay: Antithrombotic activity: inhibition of collagen-induced platelet aggregation (Born and Cross) in platelet-rich plasma of healthy volunteers; type: cell-based; details: Homo sapiens, 10 minutes preincubation at 37° C.
Description: 2. Antithrombotic activity Method The thrombocyte aggregation is measured using the method of Born and Cross (J. Physiol. 170:397 (1964)) in platelet-rich plasma taken from healthy volunteers. To inhibit coagulation, the blood is mixed with 3.14% sodium citrate in a volume ratio of 1:10. Collagen-induced aggregation The pattern of the decrease in optical density of the platelet suspension is photometrically measured and recorded after the addition of the aggregation-triggering substance. The rate of aggregation is determined from the angle of inclination of the density curve. The point on the curve where there is maximum light transmittance is used to calculate the optical density. The concentration of collagen used is as small as possible but sufficient to produce an irreversible reaction curve. Standard commercial collagen produced by Hormonchemie of Munich is used. Before the addition of the collagen the plasma is incubated for 10 minutes at 37° C. with the substance. From the measurements obtained, the EC50 is determined graphically as the concentration giving a 50% change in the optical density in terms of the inhibition of aggregation.

human thrombocytes = assay: Inhibition of binding of ^3 H-BIBU 52 to human thrombocytes (competitive binding); details: human platelet-rich plasma diluted 1:10; 5 nM ^3 H-BIBU 52; 20 minutes, ambient temperature; read-out: Competitive binding of ^3 H-BIBU 52/test substance to human thrombocytes IC50
Description: 1. Inhibition of binding of ^3 H-BIBU 52 to human thrombocytes:
A suspension of human thrombocytes in plasma is incubated with ^3 H-BIBU 52 [=(3S,5S)-5-[(4'-amidino-4-biphenylyl)oxymethyl]-3-[(carboxyl)methyl]-2pyrrolidinone[3-^3 H-4-biphenylyl]] (see German Patent Application P 42 14 245.8 of the same applicant, dated 30.04.1992, internal reference: Case 5/1093-FL), which replaces the ^125 I fibrinogen ligand known from the literature, and various concentrations of the substance to be tested. The free and bound ligand are separated by centrifuging and quantified by scintillation counting. The inhibition of ^3 H-BIBU 52 binding by the test substance is determined from the measurements obtained.
In order to do this, donor blood is taken from an anticubital vein and anticoagulated with trisodium citrate (final concentration 13 mM). The blood is centrifuged for 10 minutes at 170×g and the supernatant platelet-rich plasma (PRP) is removed. The remaining blood is vigorously centrifuged once more in order to obtain plasma. The PRP is diluted 1:10 with autologous plasma. 750 μl are incubated with 50 μl of physiological saline solution, 100 μl of test substance solution, 50 μl of ^14 C-sucrose (3,700 Bq) and 50 μl of ^3 H-BIBU 52 (final concentration: 5 nM) at ambient temperature for 20 minutes. In order to measure the non-specific binding, 5 μl of BIBU 52 (final concentration: 30 μM) are used instead of the test substance. The samples are centrifuged for 20 seconds at 10,000× g and the supernatant is poured off. 100 μl thereof are measured in order to determine the free ligand. The pellet is dissolved in 500 μl of 0.2N NaOH, 450 μl are mixed with 2 ml of scintillator and 25 μl of 5N HCl and measured. The residual plasma remaining in the pellet is determined from the ^14 C-content and the bound ligand is determined from the ^3 H-measurement. After the non-specific binding has been deducted, the pellet activity is plotted against the concentration of the test substance and the concentration for a 50% inhibition of binding is determined.

mice = assay: Tolerance after intravenous administration of 30 mg/kg to three mice; type: in vivo; details: 30 mg/kg i.v., three mice in each case

| IC50 (human thrombocytes) | SMILES | EC50 (platelet aggregation) | death of animals after intravenous administration (mice) |
| --- | --- | --- | --- |
| 210 nM | O=C(O)CC1CCN(C(=O)c2ccc(-c3nc4c(s3)CNCC4)cc2)CC1 [2(1), 2-[4-[4-(carboxymethyl)-piperidinocarbonyl]-phenyl]-4,5,6,7-tetrahydro-thiazolo[5,4-c]pyridine-hydrochloride] | 2600 nM | – |
| 450 nM | COC(=O)[C@H]1CC[C@H](NC(=O)c2ccc(-c3nc4c(s3)CNCC4)c(C)c2)CC1 [2(4), 2-[4-[(trans-4-methoxycarbonyl-cyclohexyl)-aminocarbonyl]-2-methyl-phenyl]-4,5,6,7-tetrahydro-thiazolo[5,4-c]pyridine-dihydrochloride] | 1440 nM | – |
| 31 nM | O=C(N[C@H]1CC[C@H](C(=O)O)CC1)N1CCC(c2nc3c(s2)CNCC3)CC1 [3(5), 2-[1-[(trans-4-carboxy-cyclohexyl)-aminocarbonyl]-piperid-4-yl]-4,5,6,7-tetrahydro-thiazolo[5,4-c]pyridine] | 100 nM | – |
| 24 nM | Cc1cc(C(=O)N[C@H]2CC[C@H](C(=O)O)CC2)ccc1-c1nc2c(s1)CNCC2 [4(3), 2-[4-[(trans-4-carboxy-cyclohexyl)-aminocarbonyl]-2-methyl-phenyl]-4,5,6,7-tetrahydro-thiazolo[5,4-c]pyridine-trifluoraocetate] | 220 nM | – |
| 120 nM | O=C(O)[C@H]1CC[C@H](NC(=O)[C@H]2CC[C@H](c3nc4c(s3)CCNCC4)CC2)CC1 [4(4), 2-[trans-4-[(trans-4-carboxy-cyclohexyl)-aminocarbonyl]-cyclohexyl]-4,5,7,8-tetrahydro-6H-thiazolo[4,5-d]azepine-trifluoroacetate] | 110 nM | – |

Second part, the molecule before the results:

| SMILES | IC50 (human thrombocytes) | EC50 (platelet aggregation) | death of animals after intravenous administration (mice) |
| --- | --- | --- | --- |
| O=C(N[C@H]1CC[C@H](C(=O)O)CC1)N1CCC(c2nc3c(s2)CCNCC3)CC1 [3(6), 2-[1-[(trans-4-carboxy-cyclohexyl)-aminocarbonyl]-piperid-4-yl]-4,5,7,8-tetrahydro-6H-thiazolo[4,5-d]azepine] | 42 nM | 100 nM | – |
| O=C(N[C@H]1CC[C@H](C(=O)O)CC1)c1ccc(-c2nc3cnccc3[nH]2)cc1 [3(8), 2-[4-[(trans-4-carboxy-cyclohexyl)-aminocarbonyl]-phenyl]-1H-imidazo[4,5-c]pyridine] | 2100 nM | 4200 nM | – |
| CN1CCc2nc(C3CCN(C(=O)N[C@H]4CC[C@H](C(=O)O)CC4)CC3)sc2CC1 [3(12), 2-[1-[(trans-4-carboxy-cyclohexyl)-aminocarbonyl]-piperid-4-yl]-6-methyl-4,5,7,8-tetrahydro-thiazolo[4,5-d]azepine] | 2000 nM | 2900 nM | – |
| O=C(N[C@H]1CC[C@H](C(=O)O)CC1)c1ccc(-c2nc3c(s2)CCNCC3)cc1.O=C(O)C(F)(F)F [4(1), 2-[4-[(trans-4-carboxy-cyclohexyl)-aminocarbonyl]-phenyl]-4,5,7,8-tetrahydro-6H-thiazolo[4,5-d]azepine-trifluoroacetate] | 75 nM | 680 nM | no animals died |
| COC(=O)[C@H]1CC[C@H](NC(=O)N2CCC(c3nc4c(s3)CCNCC4)CC2)CC1 [7(1), 2-[1-[(trans-4-methoxycarbonyl-cyclohexyl)-aminocarbonyl]-piperid-4-yl]-4,5,7,8-tetrahydro-6H-thiazolo[4,5-d]azepine-hydrochloride] | 1400 nM | 1400 nM | – |
| CCOC(=O)[C@H]1CC[C@H](NC(=O)N2CCC(c3nc4c(s3)CCNCC4)CC2)CC1 [7(2), 2-[1-[(trans-4-ethoxycarbonyl-cyclohexyl)-aminocarbonyl]-piperid-4-yl]-4,5,7,8-tetrahydro-6H-thiazolo[4,5-d]azepine-hydrochloride] | 1300 nM | 2600 nM | – |
| CC(C)OC(=O)[C@H]1CC[C@H](NC(=O)N2CCC(c3nc4c(s3)CCNCC4)CC2)CC1 [7(3), 2-[1-[(trans-4-isopropoxycarbonyl-cyclohexyl)-aminocarbonyl]-piperid-4-yl]-4,5,7,8-tetrahydro-6H-thiazolo[4,5-d]azepine-hydrochloride] | 1500 nM | 1300 nM | – |
| O=C(N[C@H]1CC[C@H](C(=O)O)CC1)c1ccc(-c2nc3c(s2)CNCC3)cc1.O=C(O)C(F)(F)F [Example 4, 2-[4-[(trans-4-Carboxy-cyclohexyl)-aminocarbonyl]-phenyl]-4,5,6,7-tetrahydro-thiazolo[5,4-c]pyridine-trifluoroacetate] | 96 nM | 410 nM | no animals died |
| CC(C)COC(=O)[C@H]1CC[C@H](NC(=O)N2CCC(c3nc4c(s3)CCNCC4)CC2)CC1 [Example 7, 2-[1-[(trans-4-Isobutyloxycarbonyl-cyclohexyl)-aminocarbonyl]-piperid-4-yl]-4,5,7,8-tetrahydro-6H-thiazolo[4,5-d]azepine-hydrochloride] | 1600 nM | 660 nM | – |
